Measured values reported in article PMC4171097, “Severe MgADP Inhibition of Bacillus subtilis F1-ATPase Is Not Due to the Absence of Nucleotide Binding to the Noncatalytic Nucleotide Binding Sites” (PLoS ONE, 2014).

Molecular target: T1, α3β3γ complex of BF1 (F1-ATPase from Bacillus subtilis) (Bacillus subtilis, UniProt P37808+P37809, P37808:R354W)
T1 construct: gene atpA; recombinant alpha3beta3gamma subcomplex of F1-ATPase (no delta, no epsilon), from plasmid pET21-BF1; with ATP synthase gamma chain
T1 sequence (P37809 whole entry): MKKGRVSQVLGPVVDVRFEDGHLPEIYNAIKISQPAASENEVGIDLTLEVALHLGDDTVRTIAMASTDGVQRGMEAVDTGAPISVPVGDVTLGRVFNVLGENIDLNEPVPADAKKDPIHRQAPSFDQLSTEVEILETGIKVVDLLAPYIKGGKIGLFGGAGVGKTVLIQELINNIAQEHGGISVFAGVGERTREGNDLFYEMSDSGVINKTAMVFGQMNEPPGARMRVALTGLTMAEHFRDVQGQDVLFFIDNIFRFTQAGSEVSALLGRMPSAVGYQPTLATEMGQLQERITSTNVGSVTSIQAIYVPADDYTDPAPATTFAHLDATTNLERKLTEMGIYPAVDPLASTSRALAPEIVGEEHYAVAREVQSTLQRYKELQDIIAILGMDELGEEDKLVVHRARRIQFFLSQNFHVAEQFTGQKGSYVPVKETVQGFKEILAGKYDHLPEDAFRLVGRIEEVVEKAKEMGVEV
T1 sequence (P37810 whole entry, further chain): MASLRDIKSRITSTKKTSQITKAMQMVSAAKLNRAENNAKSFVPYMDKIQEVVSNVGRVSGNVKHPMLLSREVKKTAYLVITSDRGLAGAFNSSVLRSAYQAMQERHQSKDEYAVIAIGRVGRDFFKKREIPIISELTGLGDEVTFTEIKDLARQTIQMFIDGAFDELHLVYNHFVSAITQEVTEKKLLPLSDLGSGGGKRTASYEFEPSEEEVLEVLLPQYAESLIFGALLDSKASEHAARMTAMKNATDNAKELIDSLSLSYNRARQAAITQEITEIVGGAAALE
T1 sequence (P37808 2-502 R354W): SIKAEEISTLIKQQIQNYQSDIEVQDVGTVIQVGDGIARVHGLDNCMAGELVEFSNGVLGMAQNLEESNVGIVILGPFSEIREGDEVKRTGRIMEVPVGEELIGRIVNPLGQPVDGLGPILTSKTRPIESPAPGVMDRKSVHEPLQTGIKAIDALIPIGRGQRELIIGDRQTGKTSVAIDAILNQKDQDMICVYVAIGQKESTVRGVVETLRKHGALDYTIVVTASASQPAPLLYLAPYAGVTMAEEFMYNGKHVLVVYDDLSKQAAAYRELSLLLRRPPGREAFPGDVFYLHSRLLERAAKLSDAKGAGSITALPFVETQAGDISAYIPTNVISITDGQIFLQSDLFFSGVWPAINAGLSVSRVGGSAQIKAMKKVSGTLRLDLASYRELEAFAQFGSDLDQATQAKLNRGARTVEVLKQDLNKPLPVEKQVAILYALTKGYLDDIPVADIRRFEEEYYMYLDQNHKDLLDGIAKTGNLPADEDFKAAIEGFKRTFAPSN
Assay: tryptophan fluorescence quenching titration (ex […] nm, em […] nm), simple binding equation
Details: read-out: apparent Kd

Kd: 34.4 ± 2.9 µM
Structure (SMILES): Nc1ncnc2c1ncn2[C@@H]1O[C@H](COP(=O)(O)OP(=O)(O)OP(=O)(O)O)[C@@H](O)[C@H]1O [ATP]
